In patent publication US10150760B2, “Compounds for use in preparing heterocyclic triazole agonists of the APJ receptor” (AMGEN INC., priority 2016, dated 2018):
pEC50: −log10 of the molar value.

Biological target: human APJ receptor (Homo sapiens (Human), UniProt P35414)
Experiment: [35S]GTPγS binding assay on membranes from CHO cells stably expressing human APJ receptor
Format: biochemical
Conditions: read-out: Activity hAPJ SPA EC50 IP
Summary of the method: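 Membranes from CHO cells stably expressing human APJ incubated with ligand, 0.2 nM [35S]GTPγS and WGA SPA beads in HEPES pH 7.5 with 5 mM MgCl2, 200 mM NaCl, 3 μM GDP, 90 min at RT. Nonspecific binding defined with 100 μM GTPγS; EC50 by non-linear regression.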

Chain of human APJ receptor (P35414 whole entry): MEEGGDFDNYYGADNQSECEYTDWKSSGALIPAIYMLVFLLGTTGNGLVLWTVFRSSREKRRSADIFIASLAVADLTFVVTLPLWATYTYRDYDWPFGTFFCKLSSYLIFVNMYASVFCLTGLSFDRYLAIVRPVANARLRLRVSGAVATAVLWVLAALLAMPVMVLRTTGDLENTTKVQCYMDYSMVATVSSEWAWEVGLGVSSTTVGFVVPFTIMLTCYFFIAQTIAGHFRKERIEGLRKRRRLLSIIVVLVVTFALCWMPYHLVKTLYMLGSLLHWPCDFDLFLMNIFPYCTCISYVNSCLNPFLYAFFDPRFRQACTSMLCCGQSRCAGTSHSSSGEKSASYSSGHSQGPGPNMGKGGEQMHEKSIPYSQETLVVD

Row | SMILES | pEC50
1 | COc1cccc(OC)c1-n1c(NS(=O)(=O)[C@@H](C)[C@H](C)c2ncc(F)cn2)nnc1[C@H]1CCOC1 (single isomer, unassigned) [Example 273.0, (2S,3R)-N-(4-(2,6-dimethoxyphenyl)-5-((R)-tetrahydrofuran-3-yl)-4H-1,2,4-triazol-3-yl)-3-(5-fluoropyrimidin-2-yl)butane-2-sulfonamide or (2S,3R)-N-(4-(2,6-dimethoxyphenyl)-5-((S)-tetrahydrofuran-3-yl)-4H-1,2,4-triazol-3-yl)-3-(5-fluoropyrimidin-2-yl)butane-2-sulfonamide] | 7.54
2 | COc1cccc(OC)c1-n1c(NS(=O)(=O)[C@@H](C)[C@H](C)c2ncc(F)cn2)nnc1[C@H]1CCOC1 (single isomer, unassigned) [Example 274.0, (2S,3R)-N-(4-(2,6-dimethoxyphenyl)-5-((R)-tetrahydrofuran-3-yl)-4H-1,2,4-triazol-3-yl)-3-(5-fluoropyrimidin-2-yl)butane-2-sulfonamide or (2S,3R)-N-(4-(2,6-dimethoxyphenyl)-5-((S)-tetrahydrofuran-3-yl)-4H-1,2,4-triazol-3-yl)-3-(5-fluoropyrimidin-2-yl)butane-2-sulfonamide] | 7.11
3 | COc1cccc(OC)c1-n1c(NS(=O)(=O)[C@@H](C)[C@H](C)c2ncc(F)cn2)nnc1[C@@H]1COCCO1 (single isomer, unassigned) [Example 276.0, (2S,3R)-N-(4-(2,6-dimethoxyphenyl)-5-((R)-1,4-dioxan-2-yl)-4H-1,2,4-triazol-3-yl)-3-(5-fluoropyrimidin-2-yl)butane-2-sulfonamide or (2S,3R)-N-(4-(2,6-dimethoxyphenyl)-5-((S)-1,4-dioxan-2-yl)-4H-1,2,4-triazol-3-yl)-3-(5-fluoropyrimidin-2-yl)butane-2-sulfonamide] | 7.48
4 | COc1ncnc(OC)c1-n1c(NS(=O)(=O)[C@@H](C)[C@H](C)c2ncc(F)cn2)nnc1[C@@H]1COCCO1 (single isomer, unassigned) [Example 277.0, (2S,3R)-N-(4-(4,6-dimethoxypyrimidin-5-yl)-5-((R)-1,4-dioxan-2-yl)-4H-1,2,4-triazol-3-yl)-3-(5-fluoropyrimidin-2-yl)butane-2-sulfonamide or (2S,3R)-N-(4-(4,6-dimethoxypyrimidin-5-yl)-5-((S)-1,4-dioxan-2-yl)-4H-1,2,4-triazol-3-yl)-3-(5-fluoropyrimidin-2-yl)butane-2-sulfonamide] | 7.64
5 | COc1ncnc(OC)c1-n1c(NS(=O)(=O)[C@@H](C)[C@H](C)c2ncc(F)cn2)nnc1[C@@H]1COCCO1 (single isomer, unassigned) [Example 278.0, (2S,3R)-N-(4-(4,6-dimethoxypyrimidin-5-yl)-5-((R)-1,4-dioxan-2-yl)-4H-1,2,4-triazol-3-yl)-3-(5-fluoropyrimidin-2-yl)butane-2-sulfonamide or (2S,3R)-N-(4-(4,6-dimethoxypyrimidin-5-yl)-5-((S)-1,4-dioxan-2-yl)-4H-1,2,4-triazol-3-yl)-3-(5-fluoropyrimidin-2-yl)butane-2-sulfonamide] | 6.29
6 | COc1ncnc(OC)c1-n1c(NS(=O)(=O)[C@@H](C)[C@@H](OC(C)C)c2ncc(Cl)cn2)nnc1[C@H]1CCC(C)(C)O1 (single isomer, unassigned) [Example 279.0, (1S,2S)-1-(5-chloropyrimidin-2-yl)-N-(4-(4,6-dimethoxypyrimidin-5-yl)-5-((R)-5,5-dimethyltetrahydrofuran-2-yl)-4H-1,2,4-triazol-3-yl)-1-isopropoxypropane-2-sulfonamide or (1S,2S)-1-(5-chloropyrimidin-2-yl)-N-(4-(4,6-dimethoxypyrimidin-5-yl)-5-((S)-5,5-dimethyltetrahydrofuran-2-yl)-4H-1,2,4-triazol-3-yl)-1-isopropoxypropane-2-sulfonamide] | 9.17
7 | COc1ncnc(OC)c1-n1c(NS(=O)(=O)[C@@H](C)[C@@H](OC(C)C)c2ncc(Cl)cn2)nnc1[C@H]1CCC(C)(C)O1 (single isomer, unassigned) [Example 280.0, (1S,2S)-1-(5-chloropyrimidin-2-yl)-N-(4-(4,6-dimethoxypyrimidin-5-yl)-5-((R)-5,5-dimethyltetrahydrofuran-2-yl)-4H-1,2,4-triazol-3-yl)-1-isopropoxypropane-2-sulfonamide or (1S,2S)-1-(5-chloropyrimidin-2-yl)-N-(4-(4,6-dimethoxypyrimidin-5-yl)-5-((S)-5,5-dimethyltetrahydrofuran-2-yl)-4H-1,2,4-triazol-3-yl)-1-isopropoxypropane-2-sulfonamide] | 8.12
8 | COc1cccc(OC)c1-n1c(NS(=O)(=O)[C@@H](C)[C@@H](OC(C)C)c2ncc(Cl)cn2)nnc1[C@H]1CCOC1 (single isomer, unassigned) [Example 281.0, (1S,2S)-1-(5-chloropyrimidin-2-yl)-N-(4-(2,6-dimethoxyphenyl)-5-((R)-tetrahydrofuran-3-yl)-4H-1,2,4-triazol-3-yl)-1-isopropoxypropane-2-sulfonamide or (1S,25)-1-(5-chloropyrimidin-2-yl)-N-(4-(2,6-dimethoxyphenyl)-5-((S)-tetrahydrofuran-3-yl)-4H-1,2,4-triazol-3-yl)-1-isopropoxypropane-2-sulfonamide] | 9.96
9 | COc1cccc(OC)c1-n1c(NS(=O)(=O)[C@@H](C)[C@@H](OC(C)C)c2ncc(Cl)cn2)nnc1[C@H]1CCOC1 (single isomer, unassigned) [Example 282.0, (1S,2S)-1-(5-chloropyrimidin-2-yl)-N-(4-(2,6-dimethoxyphenyl)-5-((R)-tetrahydrofuran-3-yl)-4H-1,2,4-triazol-3-yl)-1-isopropoxypropane-2-sulfonamide or (1S,25)-1-(5-chloropyrimidin-2-yl)-N-(4-(2,6-dimethoxyphenyl)-5-((S)-tetrahydrofuran-3-yl)-4H-1,2,4-triazol-3-yl)-1-isopropoxypropane-2-sulfonamide] | 8.80
10 | COc1cccc(OC)c1-n1c(NS(=O)(=O)[C@@H](C)[C@@H](OC(C)C)c2ncc(Cl)cn2)nnc1[C@@H]1COCCO1 (single isomer, unassigned) [Example 283.0, (1S,2S)-1-(5-chloropyrimidin-2-yl)-N-(4-(2,6-dimethoxyphenyl)-5-((R)-1,4-dioxan-2-yl)-4H-1,2,4-triazol-3-yl)-1-isopropoxypropane-2-sulfonamide or (1S,2S)-1-(5-chloropyrimidin-2-yl)-N-(4-(2,6-dimethoxyphenyl)-5-((S)-1,4-dioxan-2-yl)-4H-1,2,4-triazol-3-yl)-1-isopropoxypropane-2-sulfonamide] | 9.20
11 | COCC1(n2c(NS(=O)(=O)[C@@H](C)[C@H](OC)c3ncc(Cl)cn3)nnc2[C@H]2CC[C@@H](C)O2)CC1 (single isomer, unassigned) [Example 285.0, (1R,2S)-1-(5-chloropyrimidin-2-yl)-1-methoxy-N-(4-(1-(methoxymethyl)cyclopropyl)-5-((2S,5S)-5-methyltetrahydrofuran-2-yl)-4H-1,2,4-triazol-3-yl)propane-2-sulfonamide or (1R,2S)-1-(5-chloropyrimidin-2-yl)-1-methoxy-N-(4-(1-(methoxymethyl)cyclopropyl)-5-((2R,5R)-5-methyltetrahydrofuran-2-yl)-4H-1,2,4-triazol-3-yl)propane-2-sulfonamide] | 7.19
